From US8552220B2, “Therapeutic agent for Alzheimer's disease” (Tokyo Institute of Technology, priority 2008, dated 2013)

melting point [°C]	Compound
131 to 138	O=C(/C=C/c1ccc(O)cc1)CC(=O)/C=C/c1ccc(O)cc1Cl [CU127, (1E,6E)-1-(2-chloro-4-hydroxyphenyl)-7-(4-hydroxyphenyl)hepta-1,6-diene-3,5-dione]
217 to 222	CN(C)c1ccc(/C=C/C(=O)CC(=O)/C=C/c2ccc(O)cc2)c([N+](=O)[O-])c1 [CU194, (1E,6E)-1-(4-dimethylamino-2-nitrophenyl)-7-(4-hydroxyphenyl)hepta-1,6-diene-3,5-dione]
177 to 203	O=C(/C=C/c1ccc(O)cc1)CC(=O)/C=C/c1cc(Br)ccc1F [CU466, (1E,6E)-1-(5-bromo-2-fluorophenyl)-7-(4-hydroxyphenyl)hepta-1,6-diene-3,5-dione]
181 to 185	O=C(/C=C/c1ccc(O)cc1)CC(=O)/C=C/c1ccccc1C(F)(F)F [CU467, (1E,6E)-1-(4-hydroxyphenyl)-7-(2-trifluoromethylphenyl)hepta-1,6-diene-3,5-dione]
223 to 232	O=C(/C=C/c1ccc(O)cc1)CC(=O)/C=C/c1ccc(Br)cc1F [CU471, (1E,6E)-1-(4-bromo-2-fluorophenyl)-7-(4-hydroxyphenyl)hepta-1,6-diene-3,5-dione]
180 to 188	O=C(/C=C/c1ccc(O)cc1)CC(=O)/C=C/c1ccccc1-c1ccccc1 [CU472, (1E,6E)-1-(biphenyl-2-yl)-7-(4-hydroxyphenyl)hepta-1,6-diene-3,5-dione]
145 to 150	COC(=O)c1ccccc1/C=C/C(=O)CC(=O)/C=C/c1ccc(O)cc1 [CU478, (1E,6E)-1-(4-hydroxyphenyl)-7-[2-(methoxycarbonyl)phenyl]hepta-1,6-diene-3,5-dione]
210 to 218	CN(C)C(=O)c1ccccc1/C=C/C(=O)CC(=O)/C=C/c1ccc(O)cc1 [CU479, (1E,6E)-1-[2-(dimethylaminocarbonyl)phenyl]-7-(4-hydroxyphenyl)hepta-1,6-diene-3,5-dione]
86 to 90	CN(C)S(=O)(=O)c1ccccc1/C=C/C(=O)CC(=O)/C=C/c1ccc(O)cc1 [CU480, (1E,6E)-1-[2-(dimethylaminosulfonyl)phenyl]-7-(4-hydroxyphenyl)hepta-1,6-diene-3,5-dione]
163 to 167	CS(=O)(=O)Oc1ccccc1/C=C/C(=O)CC(=O)/C=C/c1ccc(O)cc1 [CU483, (1E,6E)-1-(4-hydroxyphenyl)-7-[2-(methylsulfonyloxy)phenyl]hepta-1,6-diene-3,5-dione]
155 to 159	O=C(/C=C/c1ccc(O)cc1)CC(=O)/C=C/c1ccccc1Br [CU486, (1E,6E)-1-(2-bromophenyl)-7-(4-hydroxyphenyl)hepta-1,6-diene-3,5-dione]
179 to 186	O=C(/C=C/c1ccc(O)cc1)CC(=O)/C=C/c1cc(O)ccc1-c1ccccc1 [CU526, (1E,6E)-1-(4-hydroxybiphenyl-2-yl)-7-(4-hydroxyphenyl)hepta-1,6-diene-3,5-dione]
170 to 173	CN(C)CCOc1ccc(/C=C/C(=O)CC(=O)/C=C/c2ccc(O)cc2)c(Cl)c1 [CU551, (1E,6E)-1-[2-chloro-4-(2-dimethylaminoethoxy)phenyl]-7-(4-hydroxyphenyl)hepta-1,6-diene-3,5-dione]
163 to 167	CN(C)CCOc1ccc(Br)c(/C=C/C(=O)CC(=O)/C=C/c2ccc(O)cc2)c1 [CU552, (1E,6E)-1-[2-bromo-5-(2-dimethylaminoethoxy)phenyl]-7-(4-hydroxyphenyl)hepta-1,6-diene-3,5-dione]

More lines, now with the values behind:

Compound	melting point [°C]
O=C(/C=C/c1cc(O)ccc1[N+](=O)[O-])CC(=O)/C=C/c1cc(O)ccc1[N+](=O)[O-]	253 to 262
CN(C)c1ccc(/C=C/C(=O)CC(=O)/C=C/c2ccc(N(C)C)cc2[N+](=O)[O-])c([N+](=O)[O-])c1	245 to 250
COc1cc(/C=C/C(=O)CC(=O)/C=C/c2ccc(O)cc2Cl)ccc1O [CU129, (1E,6E)-1-(2-chloro-4-hydroxyphenyl)-7-(4-hydroxy-3-methoxyphenyl)hepta-1,6-diene-3,5-dione]	185 to 192
COc1ccc(/C=C/C(=O)CC(=O)/C=C/c2ccc(O)cc2Cl)cc1O [CU130, (1E,6E)-1-(2-chloro-4-hydroxyphenyl)-7-(3-hydroxy-4-methoxyphenyl)hepta-1,6-diene-3,5-dione]	120 to 130
COc1cc(/C=C/C(=O)CC(=O)/C=C/c2cc(O)ccc2[N+](=O)[O-])ccc1O [CU132, (1E,6E)-1-(4-hydroxy-3-methoxyphenyl)-7-(5-hydroxy-2-nitrophenyl)hepta-1,6-diene-3,5-dione]	147 to 152
COc1ccc(/C=C/C(=O)CC(=O)/C=C/c2cc(O)ccc2[N+](=O)[O-])cc1O [CU133, (1E,6E)-1-(3-hydroxy-4-methoxyphenyl)-7-(5-hydroxy-2-nitrophenyl)hepta-1,6-diene-3,5-dione]	107 to 111
O=C(/C=C/c1ccc(O)cc1Cl)CC(=O)/C=C/c1ccc(O)cc1Cl [CU362, (1E,6E)-1,7-bis(2-chloro-4-hydroxyphenyl)hepta-1,6-diene-3,5-dione]	248 to 254
CN(C)c1ccc(/C=C/C(=O)CC(=O)/C=C/c2ccc(N(C)C)cc2Cl)c(Cl)c1 [CU412, (1E,6E)-1,7-bis(2-chloro-4-dimethylaminophenyl)hepta-1,6-diene-3,5-dione]	238 to 241
CCN(CC)c1ccc(/C=C/C(=O)CC(=O)/C=C/c2ccc(O)cc2)c(OC(=O)c2ccccc2)c1 [CU425, (1E,6E)-1-(2-benzoyloxy-4-diethylaminophenyl)-7-(4-hydroxyphenyl)hepta-1,6-diene-3,5-dione]	212 to 215
CCN(CC)c1ccc(/C=C/C(=O)CC(=O)/C=C/c2ccc(N(CC)CC)cc2OC(=O)c2ccccc2)c(OC(=O)c2ccccc2)c1 [CU427, (1E,6E)-1,7-bis(2-benzoyloxy-4-diethylaminophenyl)hepta-1,6-diene-3,5-dione]	192 to 196
O=C(/C=C/c1ccc(O)cc1)CC(=O)/C=C/c1cc(Cl)ccc1[N+](=O)[O-] [CU465, (1E,6E)-1-(5-chloro-2-nitrophenyl)-7-(4-hydroxyphenyl)hepta-1,6-diene-3,5-dione]	241 to 250
O=C(/C=C/c1ccc(O)cc1)CC(=O)/C=C/c1cc(C(F)(F)F)ccc1F [CU473, (1E,6E)-1-(2-fluoro-5-trifluoromethylphenyl)-7-(4-hydroxyphenyl)hepta-1,6-diene-3,5-dione]	168 to 174
O=C(/C=C/c1ccc(O)cc1)CC(=O)/C=C/c1cc(OCc2c(F)cccc2Cl)ccc1[N+](=O)[O-] [CU492, (1E,6E)-1-[5-(2-chloro-6-fluorobenzyloxy)-2-nitrophenyl]-7-(4-hydroxyphenyl)hepta-1,6-diene-3,5-dione]	180 to 183
O=C(/C=C/c1ccc(O)cc1)CC(=O)/C=C/c1cc(OCc2ccc(Cl)cc2Cl)ccc1[N+](=O)[O-] [CU493, (1E,6E)-1-[5-(2,4-dichlorobenzyloxy)-2-nitrophenyl]-7-(4-hydroxyphenyl)hepta-1,6-diene-3,5-dione]	157 to 161
CN(C)c1ccc(/C=C/C(=O)CC(=O)CCc2ccc(O)cc2)c([N+](=O)[O-])c1 [CU523, (E)-1-(4-dimethylamino-2-nitrophenyl)-7-(4-hydroxyphenyl)hept-1-ene-3,5-dione]	136 to 142
O=C(/C=C/c1ccc(O)cc1)CC(=O)/C=C/c1cc(OCc2ccccc2)ccc1-c1ccccc1 [CU527, (1E,6E)-1-(4-benzyloxybiphenyl-2-yl)-7-(4-hydroxyphenyl)hepta-1,6-diene-3,5-dione]	172 to 178
O=C(/C=C/c1ccc(O)cc1)CC(=O)/C=C/c1ccccc1-c1cccc2ccccc12 [CU528, (1E,6E)-1-(4-hydroxyphenyl)-7-[2-(naphthalen-1-yl)phenyl]hepta-1,6-diene-3,5-dione]	95 to 101
O=C(/C=C/c1ccc(O)cc1)CC(=O)/C=C/c1ccccc1-c1ccc2ccccc2c1 [CU529, (1E,6E)-1-(4-hydroxyphenyl)-7-[2-(naphthalen-2-yl)phenyl]hepta-1,6-diene-3,5-dione]	105 to 114
O=C(/C=C/c1cc(O)ccc1[N+](=O)[O-])CC(=O)CCc1ccc(O)cc1 [CU530, (E)-1-(5-hydroxy-2-nitrophenyl)-7-(4-hydroxyphenyl)hept-1-ene-3,5-dione]	62 to 70
O=C(/C=C/c1ccc(O)cc1)CC(=O)/C=C/c1cc(O)ccc1-c1cccc2ccccc12 [CU538, (1E,6E)-1-[5-hydroxy-2-(naphthalen-1-yl)phenyl]-7-(4-hydroxyphenyl)hepta-1,6-diene-3,5-dione]	215 to 221
COc1cc(/C=C/C(=O)CC(=O)/C=C/c2ccc(O)cc2)c(Br)cc1O [CU539, (1E,6E)-1-(2-bromo-4-hydroxy-5-methoxyphenyl)-7-(4-hydroxyphenyl)hepta-1,6-diene-3,5-dione]	237 to 242
O=C(/C=C/c1cc(O)ccc1-c1ccccc1)CC(=O)CCc1ccc(O)cc1 [CU541, (E)-1-(4-hydroxybiphenyl-2-yl)-7-(4-hydroxyphenyl)hept-1-ene-3,5-dione]	148 to 158
O=C(/C=C/c1cc(O)ccc1-c1cccc2ccccc12)CC(=O)CCc1ccc(O)cc1 [CU542, (E)-1-[5-hydroxy-2-(naphthalen-1-yl)phenyl]-7-(4-hydroxyphenyl)hept-1-ene-3,5-dione]	138 to 142
COc1cc(Br)c(/C=C/C(=O)CC(=O)/C=C/c2ccc(O)cc2)cc1O [CU543, (1E,6E)-1-(2-bromo-5-hydroxy-4-methoxyphenyl)-7-(4-hydroxyphenyl)hepta-1,6-diene-3,5-dione]	224 to 229
O=C(/C=C/c1ccc(O)cc1)CC(=O)/C=C/c1cc(O)c(Br)cc1Br [CU544, (1E,6E)-1-(2,4-dibromo-5-hydroxyphenyl)-7-(4-hydroxyphenyl)hepta-1,6-diene-3,5-dione]	255 to 259
O=C(/C=C/c1cc(O)ccc1Br)CC(=O)CCc1ccc(O)cc1 [CU549, (E)-1-(2-bromo-5-hydroxyphenyl)-7-(4-hydroxyphenyl)hept-1-ene-3,5-dione]	161 to 165
